Measured values reported in patent US20240327379A1, “MANDELATE FORM OF 1-(4-(((6-AMINO-5-(4-PHENOXYPHENYL)PYRIMIDIN-4-YL)AMINO)METHYL)PIPERIDIN-1-YL)PROP-2-EN-1-ONE” (Sandoz AG, priority 2021, published 2024).

How the values were obtained:
[1] = Gravimetric moisture sorption (GMS); assay type: physicochemical; settings: (25±0.1)° C.
Method: Gravimetric moisture sorption was performed with an SPSx-1μ moisture sorption analyzer (ProUmid, Ulm). The measurement cycle was started at ambient relative humidity (RH) of 30%. RH was then decreased to 5% in 5% steps, followed by a further decrease to 3% and to 0%. […] Finally, RH was increased to ambient relative humidity of 30% in 5% steps. The time per step was set to a minimum of 2 hours and a maximum of 6 hours. If an equilibrium condition with a constant mass of =0.01% within 1 hour was reached before the maximum time for all examined samples the sequential humidity step was applied before the maximum time of 6 hours. If no equilibrium was achieved the consecutive humidity step was applied after the maximum time of 6 hours. The temperature was (25±0.1)° C.

[2] = Thermogravimetric analysis (TGA); assay type: physicochemical; settings: heated from 25° C. at 10 K/min, nitrogen purge
Method: TGA was performed on a Mettler TGA/DSC 1 instrument. The sample (6.53 mg) was heated in a 100 microliter aluminium pan, closed with an aluminium lid, from 25 to 250° C. at a rate of 10 K/min. The lid was automatically pierced at the beginning of the measurement. Nitrogen (purge rate 30 mL/min) was used as purge gas.

## C=CC(=O)N1CCC(CNc2ncnc(N)c2-c2ccc(Oc3ccccc3)cc2)CC1 [crystalline evobrutinib mandelate form]
[1]; GMS 0-90% RH
  hygroscopic behaviour: slightly hygroscopic
[1]; GMS cycle 0-90% RH, PXRD after the experiment
  physical stability during moisture sorption/desorption (hysteresis, PXRD after the experiment): no structural changes appear during the experiment
[1]; GMS sorption cycle, 0 to 80% RH
  mass difference in the sorption cycle between 0 and 80% RH: about 0.5 w-%
[1]; GMS, 0 to 90% RH
  maximum uptake between 0 and 90% RH: about 0.6%
[2]
  mass loss from the beginning of the measurement until about 170° C.: about 0.1%
